According to patent publication US20260130917A1, “ANTIVIRAL COMPOSITION FOR CORONAVIRUS OR INFLUENZA VIRUS, USING NATURAL PRODUCTS, AND USE THEREOF” (priority 2022, published 2026):

Test system: SARS-CoV-2 variants: Ancestral (lineage A), Alpha (B.1.1.7), Beta (B.1.351), Gamma (P.1), Delta (B.1.617.2), Omicron (B.1.1.529)
Format: cell-based

SMILES: CCCCCOc1cccc(/C=C/C23N=C(O)CCN2c2ccccc2C3(C)C)c1 (stereo not shown) [MolPort-005-980-235, 10,10-dimethyl-10a-[(1E)-2-[3-(pentyloxy)phenyl]ethenyl]-3H,4H,10H,10aH-pyrimido[1,2-a]indol-2-ol]
- antiviral activity against SARS-CoV-2 variants: had antiviral activity against all verified SARS-CoV-2 variants, including Omicron, in a dose-dependent manner
